Legend:
[1] = DRUGMATRIX: Glutamate, NMDA, Phencyclidine radioligand binding (ligand: [3H] TCP); format: cell membranes, Rattus norvegicus, Wistar, Cerebral cortex, Membrane; conditions: Not Active = under 50% inhibition at 10 µM
[2] = DRUGMATRIX: Atrial Natriuretic Factor (ANF) radioligand binding (ligand: [125I] ANF (rat)); format: cell membranes, Cavia porcellus, Dunkin-Hartley, Adrenal gland, Membrane; conditions: Not Active = under 50% inhibition at 10 µM
[3] = target: Mitogen-activated protein kinase 1 (Homo sapiens, UniProt P28482); experiment: DRUGMATRIX: Protein Serine/Threonine Kinase, ERK2 enzyme inhibition (substrate: Myelin Basic Protein); design: species or system Escherichia coli; conditions: Not Active = under 50% inhibition at 10 µM
Mitogen-activated protein kinase 1, sequence (P28482 whole entry): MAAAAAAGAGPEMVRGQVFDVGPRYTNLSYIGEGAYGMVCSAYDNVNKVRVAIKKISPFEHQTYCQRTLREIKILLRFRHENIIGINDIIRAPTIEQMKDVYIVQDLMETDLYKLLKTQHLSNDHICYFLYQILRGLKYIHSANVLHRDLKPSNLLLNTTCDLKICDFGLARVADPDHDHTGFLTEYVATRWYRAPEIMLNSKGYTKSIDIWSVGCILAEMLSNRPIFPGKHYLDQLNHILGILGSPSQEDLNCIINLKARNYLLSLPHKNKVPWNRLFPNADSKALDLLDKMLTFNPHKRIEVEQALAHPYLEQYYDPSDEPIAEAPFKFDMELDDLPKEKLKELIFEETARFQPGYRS

[4] = target: Mitogen-activated protein kinase 3 (Homo sapiens, UniProt P27361); experiment: DRUGMATRIX: Protein Serine/Threonine Kinase, ERK1 enzyme inhibition (substrate: Myelin Basic Protein); design: species or system Escherichia coli; conditions: Not Active = under 50% inhibition at 10 µM
Mitogen-activated protein kinase 3, sequence (P27361 whole entry): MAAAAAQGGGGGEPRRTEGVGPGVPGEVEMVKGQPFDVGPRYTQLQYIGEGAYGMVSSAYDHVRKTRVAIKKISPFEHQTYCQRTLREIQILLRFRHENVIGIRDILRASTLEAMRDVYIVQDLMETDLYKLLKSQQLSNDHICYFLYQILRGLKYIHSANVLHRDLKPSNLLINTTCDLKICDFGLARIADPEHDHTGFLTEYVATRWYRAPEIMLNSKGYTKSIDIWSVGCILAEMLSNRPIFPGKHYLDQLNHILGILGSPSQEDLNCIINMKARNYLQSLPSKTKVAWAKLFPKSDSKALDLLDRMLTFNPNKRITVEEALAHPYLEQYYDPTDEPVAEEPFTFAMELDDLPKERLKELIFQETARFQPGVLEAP

[5] = target: C-C chemokine receptor type 2 (Homo sapiens, UniProt P41597); format: cell membranes, CHO-K1, Membrane; conditions: cho-k1; further: in other assays of this panel Not Active means under 50% inhibition at 10 µM
C-C chemokine receptor type 2, sequence (P41597 whole entry): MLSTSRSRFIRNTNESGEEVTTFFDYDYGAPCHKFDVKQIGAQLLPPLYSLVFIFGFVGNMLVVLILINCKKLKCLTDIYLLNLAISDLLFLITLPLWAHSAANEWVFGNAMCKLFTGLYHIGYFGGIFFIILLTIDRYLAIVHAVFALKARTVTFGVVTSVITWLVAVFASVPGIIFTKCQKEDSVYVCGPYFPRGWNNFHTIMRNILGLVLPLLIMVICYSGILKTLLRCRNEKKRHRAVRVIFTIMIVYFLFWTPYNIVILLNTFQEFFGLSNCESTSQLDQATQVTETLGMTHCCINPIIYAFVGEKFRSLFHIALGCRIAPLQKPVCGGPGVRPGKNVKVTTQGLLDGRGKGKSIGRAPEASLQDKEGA

Cytochrome P450 2C9 = Cytochrome P450 2C9 (Homo sapiens, UniProt P11712); conditions: bti-tn-5b1-4; further: in other assays of this panel Not Active means under 50% inhibition at 10 µM
Cytochrome P450 2C9, sequence (P11712 whole entry): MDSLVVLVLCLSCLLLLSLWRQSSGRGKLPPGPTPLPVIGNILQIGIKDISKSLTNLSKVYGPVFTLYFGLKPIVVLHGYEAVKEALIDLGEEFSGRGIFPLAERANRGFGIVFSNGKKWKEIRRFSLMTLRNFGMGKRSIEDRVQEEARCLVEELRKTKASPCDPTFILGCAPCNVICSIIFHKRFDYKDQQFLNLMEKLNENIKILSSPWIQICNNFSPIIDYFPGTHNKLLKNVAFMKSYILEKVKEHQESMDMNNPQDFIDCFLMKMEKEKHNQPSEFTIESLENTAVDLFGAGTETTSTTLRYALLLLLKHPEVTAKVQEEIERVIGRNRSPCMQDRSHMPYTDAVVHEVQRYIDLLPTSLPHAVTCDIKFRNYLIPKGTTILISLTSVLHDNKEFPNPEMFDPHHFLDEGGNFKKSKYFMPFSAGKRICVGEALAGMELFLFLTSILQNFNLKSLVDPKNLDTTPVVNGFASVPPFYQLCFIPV

SMILES | IC50 [1] | Ki [1] | IC50 [2] | Ki [2] | IC50 [3] | IC50 [4] | IC50 [5] | IC50 (Cytochrome P450 2C9) | Ki (Cytochrome P450 2C9) | IC50 ([1]; read-out: IC50) | Ki ([1]; read-out: Ki)
ClC(Cl)Cl [CHLOROFORM] | Not Active | Not Active | Not Active | Not Active | Not Active | Not Active | Not Active | Not Active | Not Active |  | 
C=C1CC[C@H](O)C/C1=C/C=C1\CCC[C@]2(C)[C@@H]([C@H](C)CCCC(C)C)CC[C@@H]12 [CHOLECALCIFEROL] | Not Active | Not Active | Not Active | Not Active | Not Active | Not Active | Not Active | Not Active | Not Active |  | 
C[N+](C)(C)CCO.[Cl-] [CHOLINE CHLORIDE] | Not Active | Not Active | Not Active | Not Active | Not Active | Not Active | Not Active | Not Active | Not Active |  | 
CC(=O)OCC(=O)[C@@]1(O)CC[C@H]2[C@@H]3CCC4=CC(=O)CC[C@]4(C)[C@H]3C(=O)C[C@@]21C [CORTISONE ACETATE] | Not Active | Not Active | Not Active | Not Active | Not Active | Not Active | Not Active | Not Active | Not Active |  | 
O=c1ccc2ccccc2o1 [COUMARIN] | Not Active | Not Active | Not Active | Not Active | Not Active | Not Active | Not Active | Not Active | Not Active |  | 
COc1ccc2c(c1)[C@]13CCCC[C@@H]1[C@H](C2)N(C)CC3 [DEXTROMETHORPHAN] |  |  | Not Active | Not Active | Not Active | Not Active | Not Active | Not Active | Not Active | 2420 nM | 1640 nM
CC(=O)Nc1c(I)c(NC(C)=O)c(I)c(C(=O)O)c1I [DIATRIZOIC ACID] | Not Active | Not Active | Not Active | Not Active | Not Active | Not Active | Not Active | Not Active | Not Active |  | 
COP(=O)(OC)OC=C(Cl)Cl [DICHLORVOS] | Not Active | Not Active | Not Active | Not Active | Not Active | Not Active | Not Active | Not Active | Not Active |  | 
O=C(O)Cc1ccccc1Nc1c(Cl)cccc1Cl [DICLOFENAC] | Not Active | Not Active | Not Active | Not Active | Not Active | Not Active | Not Active | Not Active | Not Active |  | 
C[C@H]1O[C@@H](O[C@H]2[C@@H](O)C[C@H](O[C@H]3[C@@H](O)C[C@H](O[C@H]4CC[C@@]5(C)[C@H](CC[C@@H]6[C@@H]5CC[C@]5(C)[C@@H](C7=CC(=O)OC7)CC[C@]65O)C4)O[C@@H]3C)O[C@@H]2C)C[C@H](O)[C@@H]1O [DIGITOXIN] | Not Active | Not Active | Not Active | Not Active | Not Active | Not Active | Not Active | Not Active | Not Active |  | 
CCN1CC(CCN2CCOCC2)C(c2ccccc2)(c2ccccc2)C1=O (stereo unspecified) [DOXAPRAM] | Not Active | Not Active | Not Active | Not Active | Not Active | Not Active | Not Active | Not Active | Not Active |  | 
Cn1c(=O)c2c(ncn2CC2OCCO2)n(C)c1=O [DOXOFYLLINE] | Not Active | Not Active | Not Active | Not Active | Not Active | Not Active | Not Active | Not Active | Not Active |  | 
COc1cccc2c1C(=O)c1c(O)c3c(c(O)c1C2=O)C[C@@](O)(C(=O)CO)C[C@@H]3O[C@H]1C[C@H](N)[C@H](O)[C@H](C)O1 [DOXORUBICIN] | Not Active | Not Active | Not Active | Not Active | Not Active | Not Active | Not Active | Not Active | Not Active |  | 
COc1cccc2c1C(=O)c1c(O)c3c(c(O)c1C2=O)C[C@@](O)(C(=O)CO)C[C@@H]3O[C@H]1C[C@H](N)[C@@H](O)[C@H](C)O1 [EPIRUBICIN] | Not Active | Not Active | Not Active | Not Active | Not Active | Not Active | Not Active | Not Active | Not Active |  | 
C[C@]12CC[C@@H]3c4ccc(OC(=O)c5ccccc5)cc4CC[C@H]3[C@@H]1CC[C@@H]2O [ESTRADIOL BENZOATE] | Not Active | Not Active | Not Active | Not Active | Not Active | Not Active | Not Active | Not Active | Not Active |  | 
C[C@]12CC[C@@H]3c4ccc(O)cc4CC[C@H]3[C@@H]1CC[C@@H]2O [ESTRADIOL] | Not Active | Not Active | Not Active | Not Active | Not Active | Not Active | Not Active | Not Active | Not Active |  | 
CC[C@@H](CO)NCCN[C@@H](CC)CO [ETHAMBUTOL] | Not Active | Not Active | Not Active | Not Active | Not Active | Not Active | Not Active | Not Active | Not Active |  | 
CC1(C)O[C@@H]2C[C@H]3[C@@H]4C[C@H](F)C5=CC(=O)C=C[C@]5(C)[C@H]4[C@@H](O)C[C@]3(C)[C@]2(C(=O)CO)O1 [FLUNISOLIDE] | Not Active | Not Active | Not Active | Not Active | Not Active | Not Active | Not Active | Not Active | Not Active |  | 
CC1(C)O[C@@H]2C[C@H]3[C@@H]4C[C@H](F)C5=CC(=O)C=C[C@]5(C)[C@@]4(F)[C@@H](O)C[C@]3(C)[C@]2(C(=O)CO)O1 [FLUOCINOLONE ACETONIDE] | Not Active | Not Active | Not Active | Not Active | Not Active | Not Active | Not Active | Not Active | Not Active |  | 
CC1(C)O[C@@H]2C[C@H]3[C@@H]4C[C@H](F)C5=CC(=O)CC[C@]5(C)[C@H]4[C@@H](O)C[C@]3(C)[C@]2(C(=O)CO)O1 [FLURANDRENOLIDE] | Not Active | Not Active | Not Active | Not Active | Not Active | Not Active | Not Active | Not Active | Not Active |  | 
Cc1ccc(S(=O)(=O)NC(=O)NN2CC3CCCC3C2)cc1 (stereo unspecified) [GLICLAZIDE] | Not Active | Not Active | Not Active | Not Active | Not Active | Not Active | Not Active | Not Active | Not Active |  | 
CC(C)Cc1ccc(C(C)C(=O)O)cc1 (stereo unspecified) [IBUPROFEN] | Not Active | Not Active | Not Active | Not Active | Not Active | Not Active | Not Active | Not Active | Not Active |  | 
COc1ccc2c(c1)c(CC(=O)O)c(C)n2C(=O)c1ccc(Cl)cc1 [INDOMETHACIN] | Not Active | Not Active | Not Active | Not Active | Not Active | Not Active | Not Active | Not Active | Not Active |  | 
CCc1c2c(nc3ccc(OC(=O)N4CCC(N5CCCCC5)CC4)cc13)-c1cc3c(c(=O)n1C2)COC(=O)[C@]3(O)CC [IRINOTECAN] | Not Active | Not Active | Not Active | Not Active | Not Active | Not Active | Not Active | Not Active | Not Active |  | 
CC(C(=O)O)c1cccc(C(=O)c2ccccc2)c1 (stereo unspecified) [KETOPROFEN] | Not Active | Not Active | Not Active | Not Active | Not Active | Not Active | Not Active | Not Active | Not Active |  | 
Nc1ccn([C@@H]2CS[C@H](CO)O2)c(=O)n1 [LAMIVUDINE] | Not Active | Not Active | Not Active | Not Active | Not Active | Not Active | Not Active | Not Active | Not Active |  | 
O=S(=O)([O-])CCS.[Na+] [MESNA] | Not Active | Not Active | Not Active | Not Active | Not Active | Not Active | Not Active | Not Active | Not Active |  | 
C#C[C@]1(O)CC[C@H]2[C@@H]3CCc4cc(OC)ccc4[C@H]3CC[C@@]21C [MESTRANOL] | Not Active | Not Active | Not Active | Not Active | Not Active | Not Active | Not Active | Not Active | Not Active |  | 
CC(=O)Nc1cccc(O)c1 [METACETAMOL] | Not Active | Not Active | Not Active | Not Active | Not Active | Not Active | Not Active | Not Active | Not Active |  | 
